According to patent US5182290A (Neurogen Corporation, priority 1991, dated 1993):
Entries after “also recorded” stand apart in the source; their conditions may differ.

Tests used:
GABAa receptor = test: Inhibition of 3H-RO15-1788 (3H-Flumazenil) binding to rat cortical tissue (GABAa receptor assay)
Experimental: Assays are carried out as described in Thomas and Tallman (J. Bio. Chem. 156: 9838-9842, J. Neurosci. 3:433-440, 1983). Rat cortical tissue is dissected and homogenized in 25 volumes (w/v) of 0.05M Tris HCl buffer (pH 7.4 at 4° C.). The tissue homogenate is centrifuged in the cold (4° C.) at 20,000×g for 20 minutes. The supernatant is decanted and the pellet is rehomogenized in the same volume of buffer and again centrifuged at 20,000× g. The supernatant is decanted and the pellet is frozen at -20° C. overnight. The pellet is then thawed and rehomogenized in 25 volume (original wt/vol) of buffer and the procedure is carried out twice. The pellet is finally resuspended in 50 volumes (w/vol of 0.05M Tris HCl buffer (pH 7.4 at […]).
Incubations contain […] of radioligand 0.5 nM (^3 H-RO15-1788[^3 H-Flumazenil] specific activity 80 Ci/mmol), drug or blocker and buffer to a total volume of […]. Incubations are carried for 30 min at 4° C. then are rapidly filtered through GFB filters to separate free and bound ligand. Filters are washed twice with fresh 0.05M Tris HCl buffer (pH 7.4 at 4° C.) and counted in a liquid scintillation counter. 1.0 mM diazepam is added to some tubes to determine nonspecific binding. Data are collected in triplicate determinations, averaged and % inhibition of total specific binding is calculated. Total Specific Binding=Total-Nonspecific. In some cases, the amounts of unlabeled drugs is varied and total displacement curves of binding are carried out. Data are converted to a form for the calculation of IC50 and Hill Coefficient (nH).

[1] = tested on: benzodiazepine binding site; conditions: result in words; Tallman et al., 1978; cited from earlier work
[2] = 3H-RO15-1788 0.5 nM, rat cortical tissue, 30 min at 4° C.

IC50 (GABAa receptor; [2]) [nM]	Structure (SMILES)	Blockade of enhancement of benzodiazepine binding by GABA agonists [1]	further results
125	COc1ccc(-c2nc3c(=O)[nH]c4ccccc4c3o2)cc1 [Compound 4, 2-(4-Methoxyphenyl)-oxazolo[4,5-c]quinolin-4(5H)-one]	–	–
95	O=c1[nH]c2ccccc2c2oc(-c3ccccc3)nc12 [Compound 2, 2-Phenyl-oxazolo[4,5-c]quinolin-4(5H)-one]	–	–
–	CN1CCc2cc3c(cc2[C@@H]1[C@H]1OC(=O)c2c1ccc1c2OCO1)OCO3 [(-) bicuculline]	much less active	–
–	CN1CCc2cc3c(cc2[C@H]1[C@@H]1OC(=O)c2c1ccc1c2OCO1)OCO3 [(+) bicuculline]	blocked	–
600	COc1cccc(-c2nc3c(=O)[nH]c4ccccc4c3o2)c1 [Compound 1, 2-(3-Methoxyphenyl)-oxazolo[4,5-c]quinolin-4(5H)-one]	–	–
–	Cn1c(=O)c2nc(-c3ccccc3)oc2c2ccccc21 [5-methyl-2-phenyl-oxazolo[4,5-c]quinolin-4(5H)-one]	–	IC50 (GABAa receptor; prior art compound, assay described above, unit inferred): ~50000 nM; activity in the assay (GABAa receptor; prior art compound, result in words): no activity; also recorded: inactive
